In the NIST ThermoML archive (doi:10.1007/s10765-012-1261-6):
Several values for one entry are separate records, joined by “and”; a condition that tells them apart may be missing. Equal values may be shown once. Numbers after ± are expanded uncertainties.

Conditions: Closed cell (Static) method

O [water]
Conditions | vapor or sublimation pressure
249.29 K, Crystal | 0.07045 ± 0.02 kPa
249.35 K, Crystal | 0.07242 ± 0.02 kPa
250.11 K, Crystal | 0.08146 ± 0.02 kPa
252.96 K, Crystal | 0.09665 ± 0.02 kPa
253.02 K, Crystal | 0.1036 ± 0.02 kPa and 0.1016 ± 0.02 kPa
253.59 K, Crystal | 0.1049 ± 0.02 kPa
257.86 K, Crystal | 0.1607 ± 0.02 kPa
258.04 K, Crystal | 0.1642 ± 0.02 kPa and 0.1567 ± 0.02 kPa
258.05 K, Crystal | 0.165 ± 0.02 kPa
262.84 K, Crystal | 0.2552 ± 0.02 kPa
262.98 K, Crystal | 0.2629 ± 0.021 kPa and 0.2541 ± 0.021 kPa
263 K, Crystal | 0.2517 ± 0.02 kPa
267.85 K, Crystal | 0.4157 ± 0.021 kPa
267.91 K, Crystal | 0.4036 ± 0.021 kPa
267.93 K, Crystal | 0.392 ± 0.021 kPa
267.99 K, Crystal | 0.423 ± 0.021 kPa
272.87 K, Liquid | 0.6049 ± 0.022 kPa
272.98 K, Liquid | 0.6038 ± 0.022 kPa
273.02 K, Liquid | 0.6135 ± 0.022 kPa
277.94 K, Liquid | 0.8666 ± 0.023 kPa
277.95 K, Liquid | 0.8493 ± 0.023 kPa
277.97 K, Liquid | 0.8679 ± 0.023 kPa
278.01 K, Liquid | 0.8712 ± 0.023 kPa
278.07 K, Liquid | 0.8686 ± 0.023 kPa
282.91 K, Liquid | 1.211 ± 0.025 kPa
282.94 K, Liquid | 1.215 ± 0.025 kPa
282.95 K, Liquid | 1.197 ± 0.025 kPa
283.03 K, Liquid | 1.224 ± 0.025 kPa
288 K, Liquid | 1.687 ± 0.028 kPa
292.84 K, Liquid | 2.295 ± 0.033 kPa
293.03 K, Liquid | 2.307 ± 0.024 kPa
293.1 K, Liquid | 2.337 ± 0.033 kPa
302.8 K, Liquid | 4.162 ± 0.044 kPa
303.07 K, Liquid | 4.214 ± 0.038 kPa and 4.238 ± 0.048 kPa
303.1 K, Liquid | 4.235 ± 0.044 kPa
312.8 K, Liquid | 7.248 ± 0.063 kPa
313.11 K, Liquid | 7.367 ± 0.063 kPa
313.12 K, Liquid | 7.372 ± 0.064 kPa
313.16 K, Liquid | 7.386 ± 0.063 kPa
317 K, Liquid | 9.084 ± 0.08 kPa
322.82 K, Liquid | 12.15 ± 0.086 kPa
323.13 K, Liquid | 12.33 ± 0.094 kPa
323.14 K, Liquid | 12.33 ± 0.093 kPa
323.19 K, Liquid | 12.34 ± 0.086 kPa
328.15 K, Liquid | 15.75 ± 0.12 kPa
332.83 K, Liquid | 19.63 ± 0.13 kPa
333.18 K, Liquid | 19.94 ± 0.14 kPa and 19.95 ± 0.14 kPa
333.24 K, Liquid | 19.97 ± 0.13 kPa
338.19 K, Liquid | 25.06 ± 0.17 kPa
342.81 K, Liquid | 30.69 ± 0.21 kPa
343.21 K, Liquid | 31.24 ± 0.21 kPa
343.22 K, Liquid | 31.24 ± 0.21 kPa
343.28 K, Liquid | 31.27 ± 0.19 kPa
348.23 K, Liquid | 38.65 ± 0.25 kPa
352.81 K, Liquid | 46.65 ± 0.31 kPa
353.23 K, Liquid | 47.47 ± 0.31 kPa
353.24 K, Liquid | 47.46 ± 0.3 kPa
353.31 K, Liquid | 47.53 ± 0.28 kPa
358.25 K, Liquid | 57.93 ± 0.35 kPa
362.79 K, Liquid | 68.98 ± 0.47 kPa
363.24 K, Liquid | 70.36 ± 0.48 kPa
363.26 K, Liquid | 70.26 ± 0.43 kPa
363.33 K, Liquid | 70.34 ± 0.4 kPa
368.27 K, Liquid | 84.67 ± 0.49 kPa
373.26 K, Liquid | 101.68 ± 0.54 kPa
373.28 K, Liquid | 101.4 ± 0.53 kPa
373.37 K, Liquid | 102.01 ± 0.54 kPa
